# Measurements: US20060217418A1, “Substituted alkyl amido piperidines” (priority 2001, published 2006)
# Target: T1, rat MCH1 receptor (Rattus norvegicus, UniProt P97639)
# T1 construct: operatively linked to DNA encoding the rat MCH1 receptor so as to permit expression thereof; expressed in transfected cells; host or cells: Human embryonic kidney Peak rapid 293 (Peakr293) cells, transient calcium phosphate transfection, membranes
# Assay: Radioligand binding assay at cloned rat MCH1 receptor ([3H]Compound A)
# Details: cloned rat MCH1, Peakr293 cell membranes, 0.08 nM [3H]Compound A, 25° C., 90 minutes; read-out: Ki(MCH-1)
# T1 sequence (P97639 whole entry): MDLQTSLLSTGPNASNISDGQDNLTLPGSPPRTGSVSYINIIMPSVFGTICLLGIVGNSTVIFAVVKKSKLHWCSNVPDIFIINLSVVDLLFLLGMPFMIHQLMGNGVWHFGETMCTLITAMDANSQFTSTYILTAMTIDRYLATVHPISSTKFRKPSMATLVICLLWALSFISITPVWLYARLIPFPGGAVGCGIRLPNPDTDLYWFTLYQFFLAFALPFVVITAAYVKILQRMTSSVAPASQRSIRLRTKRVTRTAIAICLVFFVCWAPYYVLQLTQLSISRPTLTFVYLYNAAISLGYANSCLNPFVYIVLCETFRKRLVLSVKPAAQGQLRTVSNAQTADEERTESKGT
row,SMILES,Ki [nM]
1,"CC(C(=O)NCCCN1CCC(c2cccc(NC(=O)C3CC3)c2)CC1)(c1ccccc1)c1ccccc1 [Example 123, N-[3-(1-{3-[(2,2-DIPHENYLPROPANOYL)AMINO]PROPYL}-4-PIPERIDINYL)PHENYL] CYCLOPROPANECARBOXAMIDE]",2.8
2,"CC(C)C(=O)Nc1ccc(F)c(C2CCN(CCCNC(=O)C3(c4ccc(F)cc4Cl)CCCC3)CC2)c1 [Example 137, 1-(2-CHLORO-4-FLUOROPHENYL)-N-(3-{4-[2-FLUORO-5-(ISOBUTYRYLAMINO) PHENYL]-1-PIPERIDINYL}PROPYL)CYCLOPENTANECARBOXAMIDE]",11.8
3,"CCCC(=O)Nc1cccc(C2CCN(CCCNC(=O)C3(c4ccc(Cl)cc4)CCCC3)CC2)c1 [Example 102, N-(3-{4-[3-(BUTYRYLAMINO)PHENYL]-1-PIPERIDINYL}PROPYL)-1-(4-CHLOROPHENYL) CYCLOPENTANECARBOXAMIDE]",7.9
4,"CC(C)C(=O)Nc1cc(C2CCN(CCCNC(=O)C(c3ccc(F)cc3)c3ccc(F)cc3)CC2)ccc1F [Example 48, N-{5-[1-(3-{[BIS(4-FLUOROPHENYL)ACETYL]AMINO}PROPYL)-4-PIPERIDINYL]-2-FLUORO PHENYL}2-METHYLPROPANAMIDE]",2.8
5,O=C(Nc1cccc(C2CCN(CCCNC(=O)C(c3ccccc3)c3ccccc3)CC2)c1)C1CC1 [Example 17],1.8
6,CN(C)C(=O)Nc1cccc(C2CCN(CCCNC(=O)C(c3ccc(F)cc3)c3ccc(F)cc3)CC2)c1 [Example 139],33.4
7,"CCCC(=O)Nc1cccc(C2CCN(CCCNC(=O)C3(c4ccc(F)cc4)CCCCC3)CC2)c1 [Example 87, N-(3-{4-[3-(BUTYRYLAMINO)PHENYL]-1-PIPERIDINYL}PROPYL)-1-(4-FLUOROPHENYL) CYCLOHEXANECARBOXAMIDE]",6.4
8,Cc1ccc(NC(=O)C(C)C)cc1C1CCN(CCCNC(=O)C(C)c2ccc(Cl)cc2)CC1 (stereo not drawn) [Example 100],5
9,"CCC(=O)Nc1cccc(C2CCN(CCCNC(=O)C3(c4ccc(Cl)cc4)CCC3)CC2)c1 [Example 58, 1-(4-CHLOROPHENYL)-N-(3-{4-[3-PROPIONYLAMINO)PHENYL]-1-PIPERIDINYL} PROPYL)CYCLOBUTANECARBOXAMIDE]",45.9
10,"CC(C)C(=O)Nc1cccc(C2CCN(CCCNC(=O)C3(c4ccc(Cl)cc4Cl)CC3)CC2)c1 [Example 41, 1-(2,4-DICHLOROPHENYL-N-(3-{4-[3-(ISOBUTYRYLAMINO)PHENYL]-1-PIPERIDINYL} PROPYL)CYCLOPROPANECARBOXAMIDE]",39.9
11,"Cc1ccc(NC(=O)C(C)C)cc1C1CCN(CCCNC(=O)[C@H](C)c2ccc(F)cc2)CC1 [Example 169, (2R)-2-(4-fluorophenyl)-N-(3-{4-[5-(isobutyrylamino)-2-methylphenyl]-1-piperidinyl}propyl) propanamide]",35.9
12,CCC(=O)Nc1cccc(C2CCN(CCCNC(=O)C3(c4ccc(F)cc4)CCCC3)CC2)c1 [Example 60],41.3
13,CC(C)C(=O)Nc1cccc(C2CCN(CCCNC(=O)C(C)(c3ccccc3)c3ccccc3)CC2)c1 [Example 30],5.3
14,CC(C)C(=O)Nc1ccc(C2CCN(CCCNC(=O)C(c3ccccc3)c3ccccc3)CC2)cc1 [Example 148],144
15,"Cc1ccc(NC(=O)C(C)C)cc1C1CCN(CCCNC(=O)C2(c3ccc(F)cc3Cl)CCCC2)CC1 [Example 135, 1-(2-CHLORO-4-FLUOROPHENYL)-N-(3-{4-[5-(ISOBUTYRYLAMINO)-2-METHYL PHENYL]-1-PIPERIDINYL}PROPYL)CYCLOPENTANECARBOXAMIDE]",5.2
16,"CC(C)C(=O)Nc1cccc(C2CCN(CCCNC(=O)C(C)c3ccc(Cl)cc3)CC2)n1 (stereo not drawn) [Example 90, 2-(4-CHLOROPHENYL)-N-(3-{4-[6-(ISOBUTYRYLAMINO)-2-PYRIDINYL]-1-PIPERIDINYL} PROPYL)PROPANAMIDE]",52.2
17,"Cc1ccc(NC(=O)C(C)C)cc1C1CCN(CCCNC(=O)C(O)c2ccc(F)c(F)c2)CC1 (stereo not drawn) [Example 153, N-{3-[1-(3-{[(3,4-difluorophenyl)(hydroxy)acetyl]amino}propyl)-4-piperdinyl]-4-methylphenyl}-2-methylpropanamide]",20.3
18,CCCC(=O)Nc1cccc(C2CCN(CCCNC(=O)C(c3ccccc3)(c3ccccc3)c3ccccc3)CC2)c1 [Example 97],3.6
19,"O=C(Nc1cccc(C2CCN(CCCNC(=O)C(c3ccc(Cl)cc3)c3ccc(Cl)cc3)CC2)c1)C1CC1 [Example 113, N-{3-[1-(3-{[2,2-BIS(4-CHLOROPHENYL)ACETYL]AMINO}PROPYL)-4-PIPERIDINYL] PHENYL}CYCLOPROPANECARBOXAMIDE]",0.8
20,CCCC(=O)Nc1cccc(C2CCN(CCCNC(=O)C(c3ccccc3)c3ccccc3)CC2)c1 [Example 5],3.1
21,"CCC(=O)Nc1cccc(C2CCN(CCCNC(=O)C(C)c3ccc(F)cc3)CC2)c1 (stereo not drawn) [Example 64, 2-(4-FLUOROPHENYL)-N-(3-{4-[3-PROPIONYLAMINO)PHENYL]-1-PIPERIDINYL} PROPYL) PROPANAMIDE]",70.7
22,"CC(C)C(=O)Nc1cccc(C2CCN(CCCNC(=O)C3(c4ccc(Cl)cc4)CCCCC3)CC2)c1 [Example 45, 1-(4-CHLOROPHENYL)-N-(3-{4-[3-(ISOBUTYRYLAMINO)PHENYL]-1-PIPERIDINYL} PROPYL)CYCLOHEXANECARBOXAMIDE]",4
23,"CCC(=O)Nc1cccc(C2CCN(CCCNC(=O)C(c3ccc(Cl)cc3)c3ccc(Cl)cc3)CC2)c1 [Example 57, N-{3-[1-(3-{[2,2-BIS(4-CHLOROPHENYL)ACETYL]AMINO}PROPYL)-4-PIPERIDINYL] PHENYL}PROPANAMIDE]",0.5

row,SMILES,Ki [nM]
1,"CCC(C(=O)NCCCN1CCC(c2cccc(NC(=O)C3CC3)c2)CC1)(c1ccccc1)c1ccccc1 [Example 122, N-[3-(1-{3-[(2,2-DIPHENYLBUTANOYL)AMINO]PROPYL}-4-PIPERIDINYL)PHENYL] CYCLOPROPANECARBOXAMIDE]",4.8
2,"CC(=O)Nc1cccc(C2CCN(CCCNC(=O)C(C)(c3ccccc3)c3ccccc3)CC2)c1 [Example 103, N-(3-{4-[3-(ACETYLAMINO)PHENYL]-1-PIPERIDINYL}PROPYL)-2,2-DIPHENYL PROPANAMIDE]",8
3,CCCCCC(C(=O)NCCCN1CCC(c2cccc(NC(=O)C(C)C)c2)CC1)(c1ccccc1)c1ccccc1 [Example 11],8.4
4,"CC[C@@H](C(=O)NCCCN1CCC(c2cc(NC(=O)C(C)C)ccc2C)CC1)c1ccccc1 [Example 162, (2R)-N-(3-{4-[5-(isobutyrylamino)-2-methylphenyl]-1-piperidinyl}propyl)-2-phenylbutan amide]",8.6
5,Cc1ccc(NC(=O)C(C)C)cc1C1CCN(CCCNC(=O)C2(c3ccc(F)cc3Cl)CCCCC2)CC1 [Example 134],2.4
6,Cc1ccc(NC(=O)C(C)C)cc1C1CCN(CCCNC(=O)[C@H](C)c2ccc(Cl)cc2)CC1 [Example 167],18.7
7,"CC(=O)Nc1cccc(C2CCN(CCCNC(=O)C3(c4ccc(Cl)cc4)CCC3)CC2)c1 [Example 74, N-(3-{4-[3-(ACETYLAMINO)PHENYL]-1-PIPERIDINYL}PROPYL)-1-(4-CHLOROPHENYL) CYCLOBUTANECARBOXAMIDE]",34.3
8,CCCC(=O)Nc1cccc(C2CCN(CCCNC(=O)C(C)(C)c3ccc(Cl)cc3)CC2)c1 [Example 80],7.7
9,"CCCC(=O)Nc1cccc(C2CCN(CCCNC(=O)C(C)(c3ccccc3)c3ccccc3)CC2)c1 [Example 98, N-[3-(1-{3-[(2,2-DIPHENYLPROPANOYL)AMINO]PROPYL}-4-PIPERIDINYL)PHENYL] BUTANAMIDE]",4.3
10,"CC(C)C(=O)Nc1cccc(C2CCN(CCCNC(=O)C3(c4ccc(F)cc4)CCCCC3)CC2)n1 [Example 68, 1-(4-FLUOROPHENYL)-N-(3-{4-[6-(ISOBUTYRYLAMINO)-2-PYRIDINYL]-1-PIPERIDINYL} PROPYL)CYCLOHEXANECARBOXAMIDE]",16.9
11,CCCC(=O)Nc1cc(C2CCN(CCCNC(=O)C(c3ccc(F)cc3)c3ccc(F)cc3)CC2)ccc1F [Example 104],0.9
12,Cc1ccc(NC(=O)C(C)C)cc1C1CCN(CCCNC(=O)C(c2ccccc2)(c2ccccc2)c2ccccc2)CC1 [Example 94],3.1
13,CCCC(=O)Nc1cc(C2CCN(CCCNC(=O)C(c3ccc(Cl)cc3)c3ccc(Cl)cc3)CC2)ccc1F [Example 108],1.9
14,CC(C)CC(=O)Nc1cccc(C2CCN(CCCNC(=O)C(c3ccccc3)c3ccccc3)CC2)c1 [Example 13],11.8
15,CC(C)C(=O)Nc1cc(C2CCN(CCCNC(=O)C(C)(C)c3ccc(Cl)cc3)CC2)ccc1F [Example 49],14.8
16,"Cc1ccc(C(C(=O)NCCCN2CCC(c3cccc(NC(=O)OC(C)C)c3)CC2)c2ccc(C)cc2)cc1 [Example 145, ISOPROPYL 3-[1-(3-{[BIS(4-METHYLPHENYL)ACETYL]AMINO}PROPYL)-4-PIPERIDINYL]PHENYLCARBAMATE]",26.9
17,"O=C(Nc1cccc(C2CCN(CCCNC(=O)C3(c4ccc(F)cc4Cl)CCCC3)CC2)c1)C1CC1 [Example 119, 1-(2-CHLORO-4-FLUOROPHENYL)-N-[3-(4-{3-[(CYCLOPROPYLCARBONYL)AMINO] PHENYL}-1-PIPERIDINYL)PROPYL]CYCLOPENTANECARBOXAMIDE]",18.6
18,"CC(=O)Nc1cccc(C2CCN(CCCNC(=O)C(c3ccccc3)(c3ccccc3)c3ccccc3)CC2)c1 [Example 105, N-(3-{4-[3-(ACETYLAMINO)PHENYL]-1-PIPERIDINYL}PROPYL)-2,2,2-TRIPHENYL ACETAMIDE]",2.8
19,CC(C)C(=O)Nc1cc(C2CCN(CCCNC(=O)C3(c4ccc(Cl)cc4)CC3)CC2)ccc1F [Example 47],25.6
20,"CC(=O)Nc1cccc(C2CCN(CCCNC(=O)C3(c4ccc(F)cc4)CCCCC3)CC2)c1 [Example 70, N-(3-{4-[3-(ACETYLAMINO)PHENYL]-1-PIPERIDINYL}PROPYL)-1-(4-FLUORO PHENYL)CYCLOHEXANECARBOXAMIDE]",26.7
21,"CCC(=O)Nc1cccc(C2CCN(CCCNC(=O)C(c3ccccc3)c3c(C)cc(C)cc3C)CC2)c1 (stereo not drawn) [Example 14, N-[3-(1-{3-[(2-MESITYL-2-PHENYLACETYL)AMINO]PROPYL}-4-PIPERIDINYL)PHENYL] PROPANAMIDE]",2.7
22,CC(C)C(=O)Nc1cccc(C2CCN(CCCNC(=O)C(C)(c3ccccc3)c3ccccc3)CC2)n1 [Example 83],10.3
